Experimental data from ChEMBL document CHEMBL4507319 (2021).

Tests used:
Details in all cases: Compound concentration 1.0 uM
[1] = molecular target: T1, Muscle, skeletal receptor tyrosine-protein kinase (Homo sapiens) (UniProt O15146); test: MuSK(h) Eurofins kinase panel
T1 sequence (whole entry): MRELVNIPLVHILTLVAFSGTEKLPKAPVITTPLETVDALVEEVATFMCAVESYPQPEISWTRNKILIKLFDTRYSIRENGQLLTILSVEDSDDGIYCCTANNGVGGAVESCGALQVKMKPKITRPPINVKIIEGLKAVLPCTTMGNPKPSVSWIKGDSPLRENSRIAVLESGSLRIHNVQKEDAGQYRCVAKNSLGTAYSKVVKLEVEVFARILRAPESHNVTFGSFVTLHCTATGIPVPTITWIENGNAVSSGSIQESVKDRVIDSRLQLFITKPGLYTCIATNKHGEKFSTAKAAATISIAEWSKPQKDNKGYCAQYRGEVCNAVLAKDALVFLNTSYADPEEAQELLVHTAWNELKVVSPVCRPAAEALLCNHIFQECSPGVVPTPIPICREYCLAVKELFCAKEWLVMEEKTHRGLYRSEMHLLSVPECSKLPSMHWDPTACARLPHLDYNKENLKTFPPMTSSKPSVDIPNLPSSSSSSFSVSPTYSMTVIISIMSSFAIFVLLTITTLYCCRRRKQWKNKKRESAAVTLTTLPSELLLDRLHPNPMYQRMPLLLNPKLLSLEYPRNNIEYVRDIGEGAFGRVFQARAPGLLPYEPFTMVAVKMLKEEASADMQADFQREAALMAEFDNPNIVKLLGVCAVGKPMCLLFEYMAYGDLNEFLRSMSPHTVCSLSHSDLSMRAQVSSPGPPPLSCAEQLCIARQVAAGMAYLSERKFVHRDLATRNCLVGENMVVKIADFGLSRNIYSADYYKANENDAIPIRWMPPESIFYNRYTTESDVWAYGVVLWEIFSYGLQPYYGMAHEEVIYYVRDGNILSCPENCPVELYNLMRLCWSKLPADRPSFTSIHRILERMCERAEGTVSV

[2] = molecular target: Serine/threonine-protein kinase WNK3 (Homo sapiens) (UniProt Q9BYP7); test: WNK3(h) Eurofins kinase panel
[3] = molecular target: T2, NUAK family SNF1-like kinase 1 (Homo sapiens) (UniProt O60285); test: ARK5(h) Eurofins kinase panel
T2 sequence (whole entry): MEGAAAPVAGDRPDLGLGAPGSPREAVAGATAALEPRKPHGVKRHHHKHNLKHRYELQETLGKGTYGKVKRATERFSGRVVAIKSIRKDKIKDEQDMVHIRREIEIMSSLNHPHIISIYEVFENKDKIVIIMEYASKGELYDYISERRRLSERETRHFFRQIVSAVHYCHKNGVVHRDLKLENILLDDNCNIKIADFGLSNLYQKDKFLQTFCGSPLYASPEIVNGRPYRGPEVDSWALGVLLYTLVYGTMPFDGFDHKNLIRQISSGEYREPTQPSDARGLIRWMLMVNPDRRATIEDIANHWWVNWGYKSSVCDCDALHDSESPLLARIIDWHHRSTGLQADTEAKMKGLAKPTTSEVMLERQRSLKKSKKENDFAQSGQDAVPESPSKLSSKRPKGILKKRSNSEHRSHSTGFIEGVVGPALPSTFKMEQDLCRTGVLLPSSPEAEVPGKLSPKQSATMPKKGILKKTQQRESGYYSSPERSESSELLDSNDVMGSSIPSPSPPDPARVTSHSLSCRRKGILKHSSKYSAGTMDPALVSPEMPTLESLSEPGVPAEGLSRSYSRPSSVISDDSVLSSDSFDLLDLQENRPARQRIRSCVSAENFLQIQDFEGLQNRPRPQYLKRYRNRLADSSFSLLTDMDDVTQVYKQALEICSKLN

[4] = molecular target: Mast/stem cell growth factor receptor Kit (Homo sapiens) (UniProt P10721); test: cKit(h) Eurofins kinase panel
[5] = molecular target: Mitogen-activated protein kinase 8 (Homo sapiens) (UniProt P45983); test: JNK1alpha1(h) Eurofins kinase panel
[6] = molecular target: Tyrosine-protein kinase Blk (Homo sapiens) (UniProt P51451); test: Blk(h) Eurofins kinase panel
[7] = molecular target: T3, Beta-adrenergic receptor kinase 1 (Homo sapiens) (UniProt P25098); test: GRK2(h) Eurofins kinase panel
T3 sequence (whole entry): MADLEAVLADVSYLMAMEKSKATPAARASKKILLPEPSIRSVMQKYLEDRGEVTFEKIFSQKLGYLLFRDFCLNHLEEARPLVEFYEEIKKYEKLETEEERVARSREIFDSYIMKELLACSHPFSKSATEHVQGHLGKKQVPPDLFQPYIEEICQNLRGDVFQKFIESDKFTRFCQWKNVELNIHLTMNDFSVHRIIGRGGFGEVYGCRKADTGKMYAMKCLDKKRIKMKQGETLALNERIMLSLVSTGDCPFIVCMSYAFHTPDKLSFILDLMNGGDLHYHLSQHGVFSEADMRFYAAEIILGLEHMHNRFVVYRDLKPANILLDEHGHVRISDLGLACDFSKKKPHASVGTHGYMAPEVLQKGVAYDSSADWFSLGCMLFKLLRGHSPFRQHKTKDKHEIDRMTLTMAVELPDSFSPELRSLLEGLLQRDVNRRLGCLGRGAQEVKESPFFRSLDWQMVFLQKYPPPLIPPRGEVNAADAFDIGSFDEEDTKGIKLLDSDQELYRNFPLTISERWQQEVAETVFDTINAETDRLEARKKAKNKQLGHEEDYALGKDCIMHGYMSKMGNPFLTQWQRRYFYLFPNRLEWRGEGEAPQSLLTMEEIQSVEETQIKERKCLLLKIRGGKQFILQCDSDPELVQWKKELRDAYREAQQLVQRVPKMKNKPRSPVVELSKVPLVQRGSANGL

[8] = molecular target: Ribosomal protein S6 kinase alpha-4 (Homo sapiens) (UniProt O75676); test: MSK2(h) Eurofins kinase panel

Measured: % residual kinase activity

Sequence of Serine/threonine-protein kinase WNK3 (Homo sapiens) (Q9BYP7 whole entry): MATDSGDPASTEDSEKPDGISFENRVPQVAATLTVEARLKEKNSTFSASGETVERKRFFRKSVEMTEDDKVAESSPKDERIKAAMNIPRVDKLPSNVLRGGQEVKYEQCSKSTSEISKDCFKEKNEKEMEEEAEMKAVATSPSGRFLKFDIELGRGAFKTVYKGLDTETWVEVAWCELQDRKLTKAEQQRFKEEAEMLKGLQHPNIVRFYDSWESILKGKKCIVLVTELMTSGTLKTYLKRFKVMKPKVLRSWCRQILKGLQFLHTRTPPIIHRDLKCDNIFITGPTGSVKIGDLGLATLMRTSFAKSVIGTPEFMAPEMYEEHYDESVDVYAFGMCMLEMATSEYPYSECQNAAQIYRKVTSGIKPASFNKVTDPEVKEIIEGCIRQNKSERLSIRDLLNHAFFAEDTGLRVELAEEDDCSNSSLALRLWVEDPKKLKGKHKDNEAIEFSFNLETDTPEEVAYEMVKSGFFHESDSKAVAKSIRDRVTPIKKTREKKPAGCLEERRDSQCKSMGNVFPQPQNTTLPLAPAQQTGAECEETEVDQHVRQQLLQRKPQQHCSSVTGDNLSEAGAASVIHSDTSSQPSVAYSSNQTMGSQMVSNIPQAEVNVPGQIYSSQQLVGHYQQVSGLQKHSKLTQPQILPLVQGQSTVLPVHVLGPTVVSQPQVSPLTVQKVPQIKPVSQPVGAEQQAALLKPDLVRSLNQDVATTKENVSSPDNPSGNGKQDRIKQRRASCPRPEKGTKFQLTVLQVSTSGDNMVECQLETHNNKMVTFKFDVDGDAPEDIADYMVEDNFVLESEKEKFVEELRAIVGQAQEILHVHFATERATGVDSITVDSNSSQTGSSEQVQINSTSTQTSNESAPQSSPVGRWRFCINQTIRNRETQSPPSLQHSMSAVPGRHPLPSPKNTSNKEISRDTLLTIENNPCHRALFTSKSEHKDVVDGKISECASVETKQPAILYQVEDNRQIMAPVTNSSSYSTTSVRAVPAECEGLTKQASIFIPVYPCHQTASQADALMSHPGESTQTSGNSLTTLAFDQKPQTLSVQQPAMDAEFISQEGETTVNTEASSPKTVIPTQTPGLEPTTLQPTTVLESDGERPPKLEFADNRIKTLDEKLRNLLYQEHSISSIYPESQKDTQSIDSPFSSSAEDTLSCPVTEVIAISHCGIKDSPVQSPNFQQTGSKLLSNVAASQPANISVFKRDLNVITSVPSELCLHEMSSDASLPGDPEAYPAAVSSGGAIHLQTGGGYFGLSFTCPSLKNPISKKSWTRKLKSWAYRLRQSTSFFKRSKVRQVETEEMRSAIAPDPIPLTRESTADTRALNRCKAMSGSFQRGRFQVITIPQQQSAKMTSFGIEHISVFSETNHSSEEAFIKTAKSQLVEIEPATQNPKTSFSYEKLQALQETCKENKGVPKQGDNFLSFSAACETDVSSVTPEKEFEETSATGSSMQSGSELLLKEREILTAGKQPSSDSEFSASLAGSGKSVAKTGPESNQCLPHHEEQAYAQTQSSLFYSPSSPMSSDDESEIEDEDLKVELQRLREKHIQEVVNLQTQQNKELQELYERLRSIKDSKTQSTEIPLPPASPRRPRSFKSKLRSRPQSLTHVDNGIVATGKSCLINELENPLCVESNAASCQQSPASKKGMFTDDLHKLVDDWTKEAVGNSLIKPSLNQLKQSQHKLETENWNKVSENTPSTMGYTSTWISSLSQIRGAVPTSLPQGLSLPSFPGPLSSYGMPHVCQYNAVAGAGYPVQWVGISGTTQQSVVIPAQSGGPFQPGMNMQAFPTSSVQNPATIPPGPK
Sequence of Tyrosine-protein kinase Blk (Homo sapiens) (P51451 2-505 limits assumed): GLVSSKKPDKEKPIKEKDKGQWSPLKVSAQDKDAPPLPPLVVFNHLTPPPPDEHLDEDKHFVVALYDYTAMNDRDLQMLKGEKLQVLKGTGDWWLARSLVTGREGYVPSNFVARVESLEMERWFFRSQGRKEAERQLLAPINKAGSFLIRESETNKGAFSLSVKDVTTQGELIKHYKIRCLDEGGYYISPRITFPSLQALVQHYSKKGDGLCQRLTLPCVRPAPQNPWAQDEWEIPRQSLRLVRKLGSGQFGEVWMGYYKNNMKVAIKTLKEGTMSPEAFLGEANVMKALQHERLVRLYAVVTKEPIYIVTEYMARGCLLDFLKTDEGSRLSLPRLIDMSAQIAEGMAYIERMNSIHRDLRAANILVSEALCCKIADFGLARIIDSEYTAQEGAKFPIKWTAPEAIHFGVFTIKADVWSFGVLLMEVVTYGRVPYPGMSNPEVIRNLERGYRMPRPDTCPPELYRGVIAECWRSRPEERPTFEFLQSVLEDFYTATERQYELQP
Sequence of Ribosomal protein S6 kinase alpha-4 (Homo sapiens) (O75676 whole entry, looked up): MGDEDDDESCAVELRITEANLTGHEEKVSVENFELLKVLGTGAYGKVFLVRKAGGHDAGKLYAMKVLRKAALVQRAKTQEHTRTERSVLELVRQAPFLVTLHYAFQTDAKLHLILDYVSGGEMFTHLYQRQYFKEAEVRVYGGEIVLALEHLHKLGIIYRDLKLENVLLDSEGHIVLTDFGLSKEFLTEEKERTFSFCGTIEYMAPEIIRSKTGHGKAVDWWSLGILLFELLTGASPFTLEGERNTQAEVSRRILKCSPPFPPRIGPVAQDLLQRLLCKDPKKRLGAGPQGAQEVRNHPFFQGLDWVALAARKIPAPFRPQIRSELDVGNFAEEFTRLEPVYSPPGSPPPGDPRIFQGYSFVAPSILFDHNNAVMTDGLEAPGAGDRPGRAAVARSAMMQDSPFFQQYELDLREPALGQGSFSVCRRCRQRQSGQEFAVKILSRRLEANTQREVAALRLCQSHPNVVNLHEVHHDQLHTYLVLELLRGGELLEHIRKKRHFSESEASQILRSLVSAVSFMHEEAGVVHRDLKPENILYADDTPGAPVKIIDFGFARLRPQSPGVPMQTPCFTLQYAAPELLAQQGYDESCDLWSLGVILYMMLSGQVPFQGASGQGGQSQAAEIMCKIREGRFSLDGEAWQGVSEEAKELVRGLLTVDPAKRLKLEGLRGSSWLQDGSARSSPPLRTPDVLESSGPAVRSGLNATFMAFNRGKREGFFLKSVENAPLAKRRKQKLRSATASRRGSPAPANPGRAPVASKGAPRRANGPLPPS
Sequence of Mitogen-activated protein kinase 8 (Homo sapiens) (P45983 whole entry): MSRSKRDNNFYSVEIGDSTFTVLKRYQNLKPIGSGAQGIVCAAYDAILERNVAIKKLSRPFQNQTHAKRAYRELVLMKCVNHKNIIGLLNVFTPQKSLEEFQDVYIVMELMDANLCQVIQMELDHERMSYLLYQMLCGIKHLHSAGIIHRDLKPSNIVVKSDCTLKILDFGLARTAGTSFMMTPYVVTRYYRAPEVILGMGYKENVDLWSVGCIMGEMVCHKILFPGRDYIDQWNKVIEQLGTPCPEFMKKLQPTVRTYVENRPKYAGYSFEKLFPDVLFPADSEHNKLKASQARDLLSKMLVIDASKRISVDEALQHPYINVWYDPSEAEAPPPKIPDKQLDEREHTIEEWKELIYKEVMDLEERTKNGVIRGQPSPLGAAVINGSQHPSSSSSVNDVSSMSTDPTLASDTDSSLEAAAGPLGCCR
Sequence of Mast/stem cell growth factor receptor Kit (Homo sapiens) (P10721 whole entry): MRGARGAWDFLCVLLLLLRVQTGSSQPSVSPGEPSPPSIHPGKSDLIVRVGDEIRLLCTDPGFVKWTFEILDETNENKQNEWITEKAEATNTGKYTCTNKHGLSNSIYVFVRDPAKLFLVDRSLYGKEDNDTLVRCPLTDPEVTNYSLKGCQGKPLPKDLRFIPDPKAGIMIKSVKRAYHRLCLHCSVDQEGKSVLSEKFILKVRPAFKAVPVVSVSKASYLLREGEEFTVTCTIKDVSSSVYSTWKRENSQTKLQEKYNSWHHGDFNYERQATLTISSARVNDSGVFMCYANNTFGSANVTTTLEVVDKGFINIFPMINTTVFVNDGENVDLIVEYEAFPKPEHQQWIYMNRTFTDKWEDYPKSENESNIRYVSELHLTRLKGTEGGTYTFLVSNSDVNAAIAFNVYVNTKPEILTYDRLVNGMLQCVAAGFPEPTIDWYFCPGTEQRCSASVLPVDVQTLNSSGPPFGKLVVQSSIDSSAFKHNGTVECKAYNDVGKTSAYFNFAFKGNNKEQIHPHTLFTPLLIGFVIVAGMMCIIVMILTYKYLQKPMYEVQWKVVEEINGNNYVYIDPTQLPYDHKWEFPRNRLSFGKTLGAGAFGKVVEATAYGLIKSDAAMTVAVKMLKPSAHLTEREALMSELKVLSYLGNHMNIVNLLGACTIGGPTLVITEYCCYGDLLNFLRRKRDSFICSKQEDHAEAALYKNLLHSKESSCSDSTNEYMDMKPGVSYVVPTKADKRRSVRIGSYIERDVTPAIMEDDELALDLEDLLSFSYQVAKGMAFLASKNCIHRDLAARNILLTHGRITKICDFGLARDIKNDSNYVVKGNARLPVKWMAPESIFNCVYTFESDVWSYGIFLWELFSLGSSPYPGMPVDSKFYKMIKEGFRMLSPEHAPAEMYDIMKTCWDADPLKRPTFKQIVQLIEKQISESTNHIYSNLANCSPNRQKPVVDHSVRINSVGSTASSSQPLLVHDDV

CCc1ccccc1C(=O)Nc1n[nH]c2c(C)c(F)c(C3C(C#N)=C(C)N(C)C(C)=C3C#N)cc12 [BAY-3827]
inactive: [1] 91% | [2] 103% | [3] 21% | [4] 101% | [5] 72% | [6] 111% | [7] 102% | [8] 27%
